Assay: Assay Measuring Activity of Test Compounds on Viral Production from HepAD38 Cells: HepAD38 cells grown in a T-150 flask (Corning, cat #: 430825) with Growth Medium (DMEM/F12 (1:1) (Hyclone, cat #: SH30023.02), 1× Pen/Strep (Invitrogen, cat #: 15140-122), 10% FBS (Tissue Culture Biologics, cat #: 101), 250 μg/mL G418 (Alfa Aesar, cat #: J62671), 1 μg/mL Tetracycline (Teknova, cat #: T3320)) were detached with 0.25% trypsin-EDTA to (Invitrogen, cat #: 25200-056). Tetracycline-free treatment medium (15 mL DMEM/F12 (1:1) 1× Pen/step, with 2% FBS, Tet-system approved (Clontech, cat #: 631106) were then added to mix, transferred into a 50 ml conical tube (Falcon, cat #: 21008-918,) and spun at 1300 rpm for 5 min. Pelleted cells were then re-suspended/washed with 50 mL of 1×DPBS (Invitrogen, cat #: 14190-136) 2 times and 50 mL treatment medium twice. HepAD38 cells were then re-suspended with 10 mL of treatment medium, syringed and counted. Wells of 96-well clear bottom TC plate (Corning, cat #: 3904,) were seeded at 50,000 cells/well in 180 μL of treatment medium, and 20 μL of either 10% DMSO (Sigma, cat #: D4540) as controls or a 10× solution of test compounds in 10% DMSO in treatment media was added for a final compound concentration starting at 10 μM, and plates were incubated in 5% CO2 incubator at 37° C. for 5 days.Subsequently viral load production was assayed by quantitative PCR (qPCR) of the HBV core sequence. PCR reaction mixture containing forward primers HBV-f 5′-CTGTGCCTTGGGTGGCTTT-3′ (IDT DNA), Reverse primers HBV-r 5′-[…]-3′ (IDT DNA), Fluorescent TaqMan™ Probes HBV-probe 5′-FAM/AGCTCCAAA/ZEN/[…]/3IABkFQ-3′ (IDT DNA), 10 μL/well of PerfeCTa® qPCR ToughMix® (Quanta Biosciences, Cat #: 95114-05K), and 6 μL/well of DEPC water (Alfa Aesar, cat #: J62087) was prepared. […] of supernatant was added to 16 μL of the reaction mixture in a qPCR plate (Applied Biosytems, Cat #: 4309849), sealed with a film (Applied Biosystems, Cat #: 4311971), centrifuged for a few seconds, and subsequently run on an Applied Biosystems VIIA7. The PCR mixture was incubated at 45° C. for 5 min, then 95° C. for 10 min, followed by 40 cycles of 10 seconds at 95° C. and 20 seconds at 60° C. Viral load was quantified against known HBV DNA standards by using ViiA™ 7 Software. Viral load in the supernatant from wells with treated cells were compared against viral load in supernatant from DMSO control wells (>3 per plate). Cell viability assay was performed with CellTiter-Glo Luminescent Cell Viability Assay (Promega, cat #: G7573) with modification. Mixed appropriate amount of CellTiter-Glo (CTG) 1×DPBS in a 1:1 ratio, added 100 uL of the mixture to each well followed completely removal of all supernatant in each well without touching cell surface. Incubated the plate at room temperature for 10 min on an orbital shaker, and then read the plate with a plate reader (TECAN M1000 or Envision).

Which results are given for COC(=O)CC1(O)CC2CC(c3nn(C)c(N)c3C(=O)Nc3ccc(F)c(Cl)c3)CC2C1 (stereo unspecified)?
EC50: < 100 nM; EC50 (HePAD38): < 100 nM

With Cn1nc([C@@H]2CC[C@H](c3ccccc3)C2)c(C(=O)Nc2ccc(F)c(Cl)c2)c1N as the molecule, how does the EC50 (HePAD38) read?
Its EC50 is under 100 nM.

Which EC50 (HePAD38) does the source give for COCCOc1ccc(C2CCC(c3nn(C)c(N)c3C(=O)Nc3ccc(F)c(Cl)c3)C2)cc1 (stereo unspecified) here?
Its EC50 is under 100 nM.

Which EC50 (HePAD38) does the source give for CCOC(=O)CC1CC2CC(c3nn(C)c(N)c3C(=O)Nc3ccc(F)c(Cl)c3)CC2C1 (stereo unspecified) here?
Its EC50 is under 100 nM.

Which EC50 (HePAD38) does the source give for Cn1nc(C2CCC(c3ccc(F)cc3)C2)c(C(=O)Nc2ccc(F)c(Cl)c2)c1N (stereo unspecified) here?
The EC50 was under 100 nM.

With CC(=O)Nc1ccc(C2CCC(c3nn(C)c(N)c3C(=O)Nc3ccc(F)c(Cl)c3)C2)cc1 (stereo unspecified) as the molecule, how does the EC50 (HePAD38) read?
Its EC50 is under 100 nM.

For CN(C)C(=O)CC1(O)CC2CC(c3nn(C)c(N)c3C(=O)Nc3ccc(F)c(Cl)c3)CC2C1 (stereo unspecified), which EC50 (HePAD38) is on record?
The EC50 was under 100 nM.

With Cn1nc([C@H]2CC[C@H](c3ccccc3)C2)c(C(=O)Nc2ccc(F)c(Cl)c2)c1N as the molecule, how does the EC50 (HePAD38) read?
The EC50 was “in the range around 5250 nM”.

For Cn1nc(C2CC3CC(C(N)=O)CC3C2)c(C(=O)Nc2ccc(F)c(Cl)c2)c1N (stereo unspecified), which EC50 (HePAD38) is on record?
The EC50 was under 100 nM.

With COC1CC2CC(c3nn(C)c(N)c3C(=O)Nc3ccc(F)c(Cl)c3)CC2C1 (stereo unspecified) as the molecule, how does the EC50 (HePAD38) read?
Its EC50 is under 100 nM.

With Cn1nc(C2CC3CC(C)(O)CC3C2)c(C(=O)Nc2ccc(F)c(Cl)c2)c1N (stereo unspecified) as the molecule, how does the EC50 (HePAD38) read?
Its EC50 is under 100 nM.

With Cn1nc(C2CC3CC(n4cccn4)CC3C2)c(C(=O)Nc2ccc(F)c(Cl)c2)c1N (stereo unspecified) as the molecule, how does the EC50 (HePAD38) read?
Its EC50 is under 100 nM.

Which EC50 (HePAD38) does the source give for Cn1nc(C2CC3CC(O)(CSCCN4CCOCC4)CC3C2)c(C(=O)Nc2ccc(F)c(Cl)c2)c1N (stereo unspecified) here?
Its EC50 is under 100 nM.

Which EC50 (HePAD38) does the source give for COc1cccc([C@H]2CC[C@H](c3nn(C)c(N)c3C(=O)Nc3ccc(F)c(Cl)c3)C2)c1 here?
The EC50 was under 100 nM.

With Cn1nc(C2CCC(c3ccccc3)C2)c(C(=O)Nc2cc(F)c(F)c(Br)c2)c1N (stereo unspecified) as the molecule, how does the EC50 (HePAD38) read?
The EC50 was “in the range around 300 nM”.

For Cn1nc(C2CC3CC(O)(CSCCO)CC3C2)c(C(=O)Nc2ccc(F)c(Cl)c2)c1N (stereo unspecified), which EC50 (HePAD38) is on record?
The EC50 was under 100 nM.

For Cn1nc(C2CC3CC(C(=O)O)CC3C2)c(C(=O)Nc2ccc(F)c(Cl)c2)c1N (stereo unspecified), which EC50 (HePAD38) is on record?
Its EC50 is under 100 nM.

For Cn1nc(C2CC3CC4(CC3C2)OCCO4)c(C(=O)Nc2ccc(F)c(Cl)c2)c1N (stereo unspecified), which EC50 (HePAD38) is on record?
The EC50 was under 100 nM.

With CCS(=O)(=O)C1CC2CC(c3nn(C)c(N)c3C(=O)Nc3ccc(F)c(Cl)c3)CC2C1 (stereo unspecified) as the molecule, how does the EC50 (HePAD38) read?
The EC50 was under 100 nM.

Which results are given for COc1ccc([C@H]2CC[C@H](c3nn(C)c(N)c3C(=O)Nc3ccc(F)c(Cl)c3)C2)cc1?
EC50: < 100 nM; EC50 (HePAD38): < 100 nM

Which EC50 (HePAD38) does the source give for CN(C1CC2CC(c3nn(C)c(N)c3C(=O)Nc3ccc(F)c(Cl)c3)CC2C1)S(C)(=O)=O (stereo unspecified) here?
The EC50 was under 100 nM.

With CCOC(=O)C=C1CC2CC(c3nn(C)c(N)c3C(=O)Nc3ccc(F)c(Cl)c3)CC2C1 (stereo unspecified) as the molecule, how does the EC50 (HePAD38) read?
Its EC50 is under 100 nM.

With Cn1cc(-c2ccc([C@H]3CC[C@@H](c4nn(C)c(N)c4C(=O)Nc4ccc(F)c(Cl)c4)C3)cc2)cn1 as the molecule, how does the EC50 (HePAD38) read?
Its EC50 is under 100 nM.

For CC(N1CC2CC(c3nn(C)c(N)c3C(=O)Nc3ccc(F)c(Cl)c3)CC2C1)C(F)(F)F (stereo unspecified), which EC50 (HePAD38) is on record?
The EC50 was under 100 nM.

With CC[S+]([O-])C1CC2CC(c3nn(C)c(N)c3C(=O)Nc3ccc(F)c(Cl)c3)CC2C1 (stereo unspecified) as the molecule, how does the EC50 (HePAD38) read?
Its EC50 is under 100 nM.

For Cn1nc([C@H]2CC[C@@H](c3ccccc3)C2)c(C(=O)Nc2ccc(F)c(Cl)c2)c1N, which EC50 (HePAD38) is on record?
The EC50 was under 100 nM.

For Cn1nc(C2CCC(c3ccccc3)C2)c(C(=O)Nc2ccc(F)c(C#N)c2)c1N (stereo unspecified), which EC50 (HePAD38) is on record?
The EC50 was under 100 nM.

For Cn1nc(C2CC3CN(C(=O)OC(C)(C)C)CC3C2)c(C(=O)Nc2ccc(F)c(Cl)c2)c1N (stereo unspecified), which EC50 (HePAD38) is on record?
The EC50 was under 100 nM.

Which EC50 (HePAD38) does the source give for CN(C)C(=O)CC1CC2CC(c3nn(C)c(N)c3C(=O)Nc3ccc(F)c(Cl)c3)CC2C1 (stereo unspecified) here?
Its EC50 is under 100 nM.

With Cn1nc(C2CC3CC(N4CCOCC4)CC3C2)c(C(=O)Nc2ccc(F)c(Cl)c2)c1N (stereo unspecified) as the molecule, how does the EC50 (HePAD38) read?
The EC50 was under 100 nM.

Which EC50 (HePAD38) does the source give for Cn1nc([C@@H]2CC3CNC(=O)C[C@H]3C2)c(C(=O)Nc2ccc(F)c(Cl)c2)c1N (stereo partly specified) here?
Its EC50 is under 100 nM.

For CC(C)Oc1ccc(C2CCC(c3nn(C)c(N)c3C(=O)Nc3ccc(F)c(Cl)c3)C2)cc1 (stereo unspecified), which EC50 (HePAD38) is on record?
Its EC50 is under 100 nM.

Which EC50 (HePAD38) does the source give for Cn1nc(C2CC3CCCC3C2)c(C(=O)Nc2ccc(F)c(Cl)c2)c1N (stereo unspecified) here?
Its EC50 is under 100 nM.

For Cn1nc(C2CCC(c3ccc(OC(F)(F)F)cc3)C2)c(C(=O)Nc2ccc(F)c(Cl)c2)c1N (stereo unspecified), which EC50 (HePAD38) is on record?
The EC50 was “in the range around 5250 nM”.

Which EC50 (HePAD38) does the source give for Cn1nc(C2CC3CC(CC(N)=O)CC3C2)c(C(=O)Nc2ccc(F)c(Cl)c2)c1N (stereo unspecified) here?
Its EC50 is under 100 nM.

Which EC50 (HePAD38) does the source give for Cn1nc(C2CC3CN(C(=O)N4CCCC4)CC3C2)c(C(=O)Nc2ccc(F)c(Cl)c2)c1N (stereo unspecified) here?
The EC50 was under 100 nM.

Which EC50 (HePAD38) does the source give for Cn1nc([C@H]2C[C@@H](c3ccccc3)C2)c(C(=O)Nc2ccc(F)c(Cl)c2)c1N here?
The EC50 was under 100 nM.

With Cn1nc(C2CC3CC(NS(C)(=O)=O)CC3C2)c(C(=O)Nc2ccc(F)c(Cl)c2)c1N (stereo unspecified) as the molecule, how does the EC50 (HePAD38) read?
The EC50 was under 100 nM.

With Cn1cc([C@@H]2CC[C@H](c3nn(C)c(N)c3C(=O)Nc3ccc(F)c(Cl)c3)C2)cn1 as the molecule, how does the EC50 (HePAD38) read?
Its EC50 is under 100 nM.
